Reference: PubChem BioAssay AID1918937 (Molecular Pharmacology Branch, DTP, NCI, 2023)

System: 521955-158-R2-J5-PDC complex spheroid viability
Assay: Anticancer human tumor 521955-158-R2-J5-PDC patient-derived pancreatic carcinoma cell line growth inhibition
Settings: for IC50: curve of first compound; for viability, T/C: stronger effect = lower value
Procedure, shortened: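 Complex spheroids of tumor cells with HUVEC and human MSCs, exposed to iadademstat combined with other agents. Each agent tested in half-log steps from near clinical Cmax (else 10 microM top), DMSO ≤0.25%.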

[1] = second compound 0.1 µM, first compound 0.00316 µM
[2] = second compound 0.1 µM, first compound 0.01 µM
[3] = second compound 0.1 µM, first compound 0.0316 µM
[4] = second compound 0.1 µM, first compound 0.1 µM
[5] = second compound 0.1 µM, first compound 0.316 µM
[6] = second compound 0.1 µM, first compound 1 µM
[7] = second compound 0.316 µM, first compound 0.00316 µM
[8] = second compound 0.316 µM, first compound 0.01 µM
[9] = second compound 0.316 µM, first compound 0.0316 µM
[10] = second compound 0.316 µM, first compound 0.1 µM
[11] = second compound 0.316 µM, first compound 0.316 µM
[12] = second compound 0.316 µM, first compound 1 µM
[13] = second compound 1 µM, first compound 0.00316 µM
[14] = second compound 1 µM, first compound 0.01 µM
[15] = second compound 1 µM, first compound 0.0316 µM
[16] = second compound 1 µM, first compound 0.1 µM
[17] = second compound 1 µM, first compound 0.316 µM
[18] = second compound 1 µM, first compound 1 µM
[19] = second compound 3.16 µM, first compound 0.00316 µM
[20] = second compound 3.16 µM, first compound 0.01 µM
[21] = second compound 3.16 µM, first compound 0.0316 µM
[22] = second compound 3.16 µM, first compound 0.1 µM
[23] = second compound 3.16 µM, first compound 0.316 µM
[24] = second compound 3.16 µM, first compound 1 µM
[25] = second compound 10 µM, first compound 0.00316 µM
[26] = second compound 10 µM, first compound 0.01 µM
[27] = second compound 10 µM, first compound 0.0316 µM
[28] = second compound 10 µM, first compound 0.1 µM
[29] = second compound 10 µM, first compound 0.316 µM
[30] = second compound 10 µM, first compound 1 µM
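Also: spheroids exposed to agents for seven days.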
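For viability, T/C in this document: percent of DMSO vehicle control luminescence viability.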

In the case of `O=C(C=Cn1cnc(-c2cc(C(F)(F)F)cc(C(F)(F)F)c2)n1)NNc1cnccn1` + NC1CC1c1ccc(-c2cccc(O)c2)cc1, the IC50 (second compound 0.1 µM) is reported as 219 nM, the IC50 (second compound 0.316 µM) is reported as 205 nM and the IC50 (second compound 1 µM) is reported as 168 nM. It also gave an IC50 (second compound 3.16 µM) of 75 nM, an IC50 (second compound 10 µM) of 17.8 nM and a viability, T/C [1] of 81.3%. The viability, T/C [2] was 75%, the viability, T/C [3] was 85.6% and the viability, T/C [4] was 65.6%. The viability, T/C [5] was 42.5%, the viability, T/C [6] was 23.1% and the viability, T/C [7] was 69.8%. For the same compound, the viability, T/C [8] was 79.1%, the viability, T/C [9] was 78.5% and the viability, T/C [10] was 78%. For the same compound, the viability, T/C [11] was 34.2%, the viability, T/C [12] was 22.7% and the viability, T/C [13] was 65.1%. For the same compound, the viability, T/C [14] was 66.5%, the viability, T/C [15] was 79.3% and the viability, T/C [16] was 53.6%. The viability, T/C [17] was 40.5%, the viability, T/C [18] was 19.4% and the viability, T/C [19] was 67.2%. For the same compound, the viability, T/C [20] was 61.2%, the viability, T/C [21] was 52.2% and the viability, T/C [22] was 50.4%. The viability, T/C [23] was 36.9%, the viability, T/C [24] was 17.5% and the viability, T/C [25] was 56.6%. The viability, T/C [26] was 56.9%, the viability, T/C [27] was 43.6% and the viability, T/C [28] was 36.5%. The viability, T/C [29] was 24.7% and the viability, T/C [30] was 16.8%.
Compound `COc1cc(C2c3cc4c(cc3C(OC3OC5COC(C)OC5C(O)C3O)C3COC(=O)C23)OCO4)cc(OC)c1O` (stereo not given) + NC1CCC(NC2CC2c2ccccc2)CC1 has an IC50 (second compound 0.1 µM) of 71.4 nM, an IC50 (second compound 0.316 µM) of 76.7 nM and an IC50 (second compound 1 µM) of 59.8 nM. It also gave an IC50 (second compound 3.16 µM) of 79.1 nM, an IC50 (second compound 10 µM) of 72.2 nM and a viability, T/C (second compound 0.1 µM, first compound 0.00949 µM) of 106%. It also gave a viability, T/C (second compound 0.1 µM, first compound 0.03 µM) of 92.6%, a viability, T/C (second compound 0.1 µM, first compound 0.0949 µM) of 35.4% and a viability, T/C (second compound 0.1 µM, first compound 0.3 µM) of 15.4%. For the same compound, the viability, T/C (second compound 0.1 µM, first compound 0.949 µM) was 9.48%, the viability, T/C (second compound 0.1 µM, first compound 3 µM) was 7.12% and the viability, T/C (second compound 0.316 µM, first compound 0.00949 µM) was 102%. For the same compound, the viability, T/C (second compound 0.316 µM, first compound 0.03 µM) was 88.5%, the viability, T/C (second compound 0.316 µM, first compound 0.0949 µM) was 40.6% and the viability, T/C (second compound 0.316 µM, first compound 0.3 µM) was 15.8%. The viability, T/C (second compound 0.316 µM, first compound 0.949 µM) was 10.4%, the viability, T/C (second compound 0.316 µM, first compound 3 µM) was 6.65% and the viability, T/C (second compound 1 µM, first compound 0.00949 µM) was 93.3%. It also gave a viability, T/C (second compound 1 µM, first compound 0.03 µM) of 77.7%, a viability, T/C (second compound 1 µM, first compound 0.0949 µM) of 30.6% and a viability, T/C (second compound 1 µM, first compound 0.3 µM) of 16.2%. The viability, T/C (second compound 1 µM, first compound 0.949 µM) was 8.2%, the viability, T/C (second compound 1 µM, first compound 3 µM) was 6.77% and the viability, T/C (second compound 3.16 µM, first compound 0.00949 µM) was 96.6%. The viability, T/C (second compound 3.16 µM, first compound 0.03 µM) was 91.3%, the viability, T/C (second compound 3.16 µM, first compound 0.0949 µM) was 41.2% and the viability, T/C (second compound 3.16 µM, first compound 0.3 µM) was 17.7%. For the same compound, the viability, T/C (second compound 3.16 µM, first compound 0.949 µM) was 9.09%, the viability, T/C (second compound 3.16 µM, first compound 3 µM) was 7.34% and the viability, T/C (second compound 10 µM, first compound 0.00949 µM) was 99.4%. It also gave a viability, T/C (second compound 10 µM, first compound 0.03 µM) of 94.4%, a viability, T/C (second compound 10 µM, first compound 0.0949 µM) of 35.6% and a viability, T/C (second compound 10 µM, first compound 0.3 µM) of 18%. It also gave a viability, T/C (second compound 10 µM, first compound 0.949 µM) of 7.96% and a viability, T/C (second compound 10 µM, first compound 3 µM) of 6.31%.
`Nc1ncn(C2CC(O)C(CO)O2)c(=O)n1` (stereo not given) + NC1CCC(NC2CC2c2ccccc2)CC1 showed an IC50 (second compound 0.1 µM) of over 1000 nM, an IC50 (second compound 0.316 µM) of over 1000 nM and an IC50 (second compound 1 µM) of over 1000 nM. It also gave an IC50 (second compound 3.16 µM) of 941 nM, an IC50 (second compound 10 µM) of over 1000 nM and a viability, T/C [1] of 101%. The viability, T/C [2] was 108%, the viability, T/C [3] was 93.6% and the viability, T/C [4] was 79.7%. It also gave a viability, T/C [5] of 69.6%, a viability, T/C [6] of 64.2% and a viability, T/C [7] of 97.4%. For the same compound, the viability, T/C [8] was 96%, the viability, T/C [9] was 85.6% and the viability, T/C [10] was 83.4%. For the same compound, the viability, T/C [11] was 63%, the viability, T/C [12] was 55.3% and the viability, T/C [13] was 99.3%. It also gave a viability, T/C [14] of 90.1%, a viability, T/C [15] of 85.3% and a viability, T/C [16] of 74.4%. It also gave a viability, T/C [17] of 60.5%, a viability, T/C [18] of 56.3% and a viability, T/C [19] of 96.4%. For the same compound, the viability, T/C [20] was 95.4%, the viability, T/C [21] was 93.1% and the viability, T/C [22] was 75.4%. It also gave a viability, T/C [23] of 59.1%, a viability, T/C [24] of 49% and a viability, T/C [25] of 95.3%. The viability, T/C [26] was 91%, the viability, T/C [27] was 92.8% and the viability, T/C [28] was 76.5%. The viability, T/C [29] was 62.5% and the viability, T/C [30] was 51.6%.
